Experimental findings from patent US10660877B2 (BRISTOL-MYERS SQUIBB COMPANY, priority 2016, dated 2020) are described below.

Molecules are shown by their SMILES. Read-outs that look alike come from different tables or passages of the source. Bounds are passed on as bounds.

One test deals with human TLR8 (Homo sapiens (Human), UniProt Q9NR97). Description: TLR8 inhibition reporter assay (HEK-Blue cells, SEAP reporter, R848 stimulation).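 Note: compounds tested from 0.05 nM to 50 µM, 22 h at 37 °C, SEAP measured with HEK-Blue Detection, inhibition relative to agonist plus DMSO versus a known inhibitor.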 On the technique in general: In a reporter assay the amount or activity of a reporter protein is the signal.
The next test concerns the target human TLR9 (Homo sapiens (Human), UniProt Q9NR96). Description: TLR9 inhibition reporter assay (HEK-Blue cells, SEAP reporter, ODN2006 stimulation).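 Note: compounds tested over 0.05 nM to 50 µM, 22 h incubation, inhibition taken as SEAP signal drop from agonist plus DMSO wells toward a known inhibitor control.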
In the next test the target is human TLR7 (Homo sapiens (Human), UniProt Q9NYK1). In words: TLR7 inhibition reporter assay (HEK-Blue cells, SEAP reporter, gardiquimod stimulation). It is filed as cell-based.
Where [1] appears, read: read-out: TLR8 IC50, HEK-Blue cells overexpressing human TLR8, R848 15.9 μM.
Where [2] appears, read: read-out: TLR9 IC50, HEK-Blue cells overexpressing human TLR9, ODN2006 5 nM.
Where [3] appears, read: HEK-Blue cells overexpressing human TLR7, gardiquimod 7.5 μM.
Where [4] appears, read: TLR8 IC50, HEK-Blue cells overexpressing human TLR8, R848 15.9 μM.
[5] abbreviates: TLR9 IC50, HEK-Blue cells overexpressing human TLR9, ODN2006 5 nM.
[6] abbreviates: read-out: TLR8 IC50, HEK-Blue cells, R848 15.9 μM.
Where [7] appears, read: read-out: TLR9 IC50, HEK-Blue cells, ODN2006 5 nM.
Where [8] appears, read: HEK-Blue cells, gardiquimod 7.5 μM.

human TLR8, sequence (Q9NR97 27-1041): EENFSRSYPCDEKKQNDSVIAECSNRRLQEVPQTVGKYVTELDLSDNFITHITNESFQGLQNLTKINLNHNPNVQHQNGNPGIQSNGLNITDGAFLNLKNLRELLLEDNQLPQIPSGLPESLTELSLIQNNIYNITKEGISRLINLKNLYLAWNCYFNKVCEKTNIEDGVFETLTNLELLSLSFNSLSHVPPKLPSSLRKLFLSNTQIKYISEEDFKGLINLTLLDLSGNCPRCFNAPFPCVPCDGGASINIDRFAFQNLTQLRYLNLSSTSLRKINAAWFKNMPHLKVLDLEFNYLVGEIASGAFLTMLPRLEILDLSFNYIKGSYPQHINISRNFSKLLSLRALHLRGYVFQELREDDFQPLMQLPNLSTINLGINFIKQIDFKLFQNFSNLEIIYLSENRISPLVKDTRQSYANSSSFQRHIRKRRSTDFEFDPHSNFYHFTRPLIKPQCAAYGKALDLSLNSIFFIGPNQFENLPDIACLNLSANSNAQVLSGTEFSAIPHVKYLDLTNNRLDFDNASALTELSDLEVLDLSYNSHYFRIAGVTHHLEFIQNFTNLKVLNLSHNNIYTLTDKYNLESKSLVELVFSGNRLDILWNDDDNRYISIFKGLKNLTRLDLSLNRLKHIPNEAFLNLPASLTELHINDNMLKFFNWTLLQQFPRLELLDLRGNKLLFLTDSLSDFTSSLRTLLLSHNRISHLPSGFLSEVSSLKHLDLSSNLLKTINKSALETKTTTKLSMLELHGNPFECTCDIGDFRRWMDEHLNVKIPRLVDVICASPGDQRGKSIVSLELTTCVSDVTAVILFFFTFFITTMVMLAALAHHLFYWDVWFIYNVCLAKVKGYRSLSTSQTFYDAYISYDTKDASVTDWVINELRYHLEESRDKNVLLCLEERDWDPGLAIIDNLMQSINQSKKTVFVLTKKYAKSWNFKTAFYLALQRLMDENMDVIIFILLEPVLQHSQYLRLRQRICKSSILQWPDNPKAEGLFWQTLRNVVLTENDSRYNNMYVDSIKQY
human TLR9, sequence (Q9NR96 26-1032): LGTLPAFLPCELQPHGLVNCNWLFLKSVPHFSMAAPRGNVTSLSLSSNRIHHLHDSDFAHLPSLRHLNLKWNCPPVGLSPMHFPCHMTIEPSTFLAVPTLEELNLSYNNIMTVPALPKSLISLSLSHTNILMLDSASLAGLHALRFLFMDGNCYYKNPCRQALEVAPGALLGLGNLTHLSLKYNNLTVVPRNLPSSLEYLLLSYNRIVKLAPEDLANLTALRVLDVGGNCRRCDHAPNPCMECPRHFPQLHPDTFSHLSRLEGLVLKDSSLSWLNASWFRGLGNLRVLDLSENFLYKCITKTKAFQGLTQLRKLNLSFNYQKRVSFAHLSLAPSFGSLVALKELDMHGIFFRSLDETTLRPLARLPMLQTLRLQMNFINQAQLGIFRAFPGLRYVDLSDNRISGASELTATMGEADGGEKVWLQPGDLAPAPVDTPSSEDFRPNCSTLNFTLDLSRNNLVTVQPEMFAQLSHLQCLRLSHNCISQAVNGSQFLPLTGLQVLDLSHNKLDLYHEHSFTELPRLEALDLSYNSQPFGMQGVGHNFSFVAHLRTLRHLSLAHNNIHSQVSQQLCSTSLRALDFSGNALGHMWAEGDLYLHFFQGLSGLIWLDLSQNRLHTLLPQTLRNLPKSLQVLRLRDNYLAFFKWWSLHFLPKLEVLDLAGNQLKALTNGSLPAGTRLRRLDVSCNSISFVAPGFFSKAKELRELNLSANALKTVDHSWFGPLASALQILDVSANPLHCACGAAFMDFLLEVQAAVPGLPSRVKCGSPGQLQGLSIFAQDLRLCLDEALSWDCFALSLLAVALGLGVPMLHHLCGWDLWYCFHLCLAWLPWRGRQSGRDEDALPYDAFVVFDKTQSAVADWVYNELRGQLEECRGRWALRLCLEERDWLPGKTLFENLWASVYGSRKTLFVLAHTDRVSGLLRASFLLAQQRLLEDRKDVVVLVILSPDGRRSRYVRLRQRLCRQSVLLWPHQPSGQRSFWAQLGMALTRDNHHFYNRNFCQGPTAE
human TLR7, sequence (Q9NYK1 27-1049): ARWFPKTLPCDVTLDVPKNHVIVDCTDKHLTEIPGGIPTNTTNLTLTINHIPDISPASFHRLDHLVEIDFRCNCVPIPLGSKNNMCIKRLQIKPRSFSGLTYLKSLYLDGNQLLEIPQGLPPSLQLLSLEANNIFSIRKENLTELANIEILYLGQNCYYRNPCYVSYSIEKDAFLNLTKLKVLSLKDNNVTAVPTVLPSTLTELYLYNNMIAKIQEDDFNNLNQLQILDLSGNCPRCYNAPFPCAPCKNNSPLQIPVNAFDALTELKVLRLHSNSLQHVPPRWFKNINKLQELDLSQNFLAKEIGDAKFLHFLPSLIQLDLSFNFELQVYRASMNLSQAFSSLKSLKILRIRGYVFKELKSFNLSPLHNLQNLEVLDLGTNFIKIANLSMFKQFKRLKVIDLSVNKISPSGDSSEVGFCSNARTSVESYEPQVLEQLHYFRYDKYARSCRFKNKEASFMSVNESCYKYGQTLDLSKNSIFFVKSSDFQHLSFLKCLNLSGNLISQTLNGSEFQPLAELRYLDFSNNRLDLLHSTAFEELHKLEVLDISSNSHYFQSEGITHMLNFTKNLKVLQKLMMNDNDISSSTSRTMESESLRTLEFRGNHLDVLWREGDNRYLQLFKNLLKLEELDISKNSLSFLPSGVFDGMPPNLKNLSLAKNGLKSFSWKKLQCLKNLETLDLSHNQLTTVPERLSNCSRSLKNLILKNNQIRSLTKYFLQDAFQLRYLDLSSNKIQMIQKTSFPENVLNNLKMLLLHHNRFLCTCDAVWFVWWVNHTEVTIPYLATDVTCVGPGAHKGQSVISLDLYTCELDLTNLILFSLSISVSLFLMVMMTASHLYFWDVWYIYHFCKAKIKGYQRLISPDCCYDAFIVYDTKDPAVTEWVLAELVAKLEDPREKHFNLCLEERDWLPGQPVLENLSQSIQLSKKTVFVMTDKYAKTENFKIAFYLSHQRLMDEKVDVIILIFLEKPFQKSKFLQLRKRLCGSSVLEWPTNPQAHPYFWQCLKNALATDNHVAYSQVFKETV

As usually defined, the IC50 is the concentration at which inhibition is half-maximal. As to `Cc1cc(-c2[nH]c3ccc(C4CCN(Cc5c[nH]cn5)CC4)cc3c2CC(F)F)cc(C)n1` [Example 537, 5-(1-((1H-imidazol-4-yl)methyl)piperidin-4-yl)-3-(2,2-difluoroethyl)-2-(2,6-dimethylpyridin-4-yl)-1H-indole], the IC50 at human TLR8 (setting [1]) worked out at 53.3 nM; on human TLR9 (setting [2]), 32 nM; against human TLR7 (setting [3]), 36.2 nM.
`Cc1cc(-c2[nH]c3ccc(C4CCN(CC(=O)N5CC[C@@H](O)C5)CC4)cc3c2C(C)C)cc(C)n1` [Example 275, (R)-2-(4-(2-(2,6-dimethylpyridin-4-yl)-3-isopropyl-1H-indol-5-yl)piperidin-1-yl)-1-(3-hydroxypyrrolidin-1-yl)ethan-1-one]: the IC50 is 6.8 nM against human TLR8 (setting [4]), 67 nM against human TLR9 (setting [5]) and 1.6 nM against human TLR7 (setting [3]).
Take `Cc1cc(-c2[nH]c3ccc(C4CCN(CC(=O)N(C)C)CC4)cc3c2C(C)C)c(C)cn1` [Example 642, 2-(4-(2-(2,5-dimethylpyridin-4-yl)-3-isopropyl-1H-indol-5-yl)piperidin-1-yl)-N,N-dimethylacetamide]: the IC50 at human TLR8 (setting [1]) turned out to be 5.6 nM; at human TLR9 (setting [2]), 4100 nM; on human TLR7 (setting [3]), 16.1 nM.
For `CNCC(=O)N1CCC(c2ccc3[nH]c(-c4cc(C5CC5)ncc4F)c(C(C)C)c3c2)CC1` [Example 518, 1-(4-(2-(2-cyclopropyl-5-fluoropyridin-4-yl)-3-isopropyl-1H-indol-5-yl)piperidin-1-yl)-2-(methylamino)ethan-1-one], in that order: 257 nM, 1610 nM and 15.1 nM.
For `Cc1cc(-c2[nH]c3ccc(C4CCN(C(=O)C5(C)COC5)CC4)cc3c2C(C)C)ccn1` [Example 596, (4-(3-isopropyl-2-(2-methylpyridin-4-yl)-1H-indol-5-yl)piperidin-1-yl)(3-methyloxetan-3-yl)methanone], in that order: 102 nM, 44500 nM and 33.3 nM.
For `Cc1cc(-c2[nH]c3ccc(C4CCN(C(=O)CNS(C)(=O)=O)CC4)cc3c2C(C)C)cc(C)n1` [Example 150, N-(2-(4-(2-(2,6-dimethylpyridin-4-yl)-3-isopropyl-1H-indol-5-yl)piperidin-1-yl)-2-oxoethyl) methanesulfonamide], in that order: 71.6 nM, 53100 nM and 7.3 nM.
In the case of `Cc1cc(-c2[nH]c3ccc(C4CCN(Cc5c[nH]nn5)CC4)cc3c2C(C)C)c(F)cn1` [Example 691], the IC50 at human TLR8 (setting [1]) was 2.6 nM; at human TLR9 (setting [2]), 2570 nM; on human TLR7 (setting [3]), 7 nM.
With `Cc1cc(-c2[nH]c3ccc(C4CCN(C5CCN(C(C)C)CC5)CC4)cc3c2C(C)C)ccn1` [Example 701, 3-isopropyl-5-(1′-isopropyl-[1,4′-bipiperidin]-4-yl)-2-(2-methylpyridin-4-yl)-1H-indole], the IC50 on human TLR8 (setting [1]) was 5.8 nM; on human TLR9 (setting [2]), 163 nM; at human TLR7 (setting [3]), 6.5 nM.
Consider `Cc1cc(-c2[nH]c3ccc(C4CCN(C(=O)OCC(C)C)CC4)cc3c2C(C)C)ccn1` [Example 558, isobutyl 4-(3-isopropyl-2-(2-methylpyridin-4-yl)-1H-indol-5-yl)piperidine-1-carboxylate], for which the figures for the IC50 at human TLR8 (setting [1]), at human TLR9 (setting [2]) and against human TLR7 (setting [3]) were 1840 nM, 15000 nM and 3400 nM, respectively.
Turning to `Cc1cc(-c2[nH]c3ccc(C4CCN(C5CCCNC5O)CC4)cc3c2C(C)C)ccn1` (stereo not drawn) [Example 702, 4-(3-isopropyl-2-(2-methylpyridin-4-yl)-1H-indol-5-yl)-[1,3′-bipiperidin]-2′-ol], the values for the IC50 on human TLR8 (setting [1]), at human TLR9 (setting [2]) and on human TLR7 (setting [3]) were 2.9 nM, 432 nM and 14.4 nM, respectively.
In the case of `Cc1cc(-c2[nH]c3cc(F)c(C4CCN(C5CCN(C(C)C)CC5)CC4)cc3c2C(C)C)ccn1` [Example 825, 6-fluoro-3-isopropyl-5-(1′-isopropyl-[1,4′-bipiperidin]-4-yl)-2-(2-methylpyridin-4-yl)-1H-indole], the IC50 was determined as 8.1 nM at human TLR8 (setting [6]), 380 nM on human TLR9 (setting [7]) and 6.5 nM against human TLR7 (setting [8]).
As for `CNCCN1CCC(c2ccc3[nH]c(-c4cc(C)nc(C)c4)c(C(C)C)c3c2)CC1` [Example 428, 2-(4-(2-(2,6-dimethylpyridin-4-yl)-3-isopropyl-1H-indol-5-yl)piperidin-1-yl)-N-methylethan-1-amine], the IC50 against human TLR8 (setting [4]) is 1.9 nM; at human TLR9 (setting [5]), 120 nM; against human TLR7 (setting [3]) it was 1.9 nM.
Take `C=CC(C)(O)CN1CCC(c2ccc3[nH]c(-c4cc(C)nc(C)c4)c(C(C)C)c3c2)CC1` (stereo not drawn) [Example 853, 1-(4-(2-(2,6-dimethylpyridin-4-yl)-3-isopropyl-1H-indol-5-yl)piperidin-1-yl)-2-methylbut-3-en-2-ol]: the IC50 at human TLR8 (setting [6]) came to 1 nM; at human TLR9 (setting [7]), 293 nM; against human TLR7 (setting [8]) it was 2.3 nM.
`COc1cc(OC)nc(CN2CCC(c3ccc4[nH]c(-c5cc(C)ncc5F)c(C(C)C)c4c3)CC2)n1` [Example 694, 5-(1-((4,6-dimethoxypyrimidin-2-yl)methyl)piperidin-4-yl)-2-(5-fluoro-2-methylpyridin-4-yl)-3-isopropyl-1H-indole]: the values for the IC50 on human TLR8 (setting [1]), on human TLR9 (setting [2]) and at human TLR7 (setting [3]) were 7.8 nM, 3690 nM and 20.7 nM, respectively.
Turning to `COc1cc(-c2[nH]c3ccc(C4CCN(C5CCN(C)CC5)CC4)cc3c2C(C)C)ccn1` [Example 795, 3-isopropyl-2-(2-methoxypyridin-4-yl)-5-(1′-methyl-[1,4′-bipiperidin]-4-yl)-1H-indole], the IC50 at human TLR8 (setting [1]) worked out at 12.5 nM; on human TLR9 (setting [2]), 851 nM; on human TLR7 (setting [3]), 129 nM.
In the case of `Cc1cc(-c2[nH]c3ccc(C4CCN(C(=O)CN5CCCC5C)CC4)cc3c2C(C)C)cc(C)n1` (stereo not drawn) [Example 366, 1-(4-(2-(2,6-dimethylpyridin-4-yl)-3-isopropyl-1H-indol-5-yl)piperidin-1-yl)-2-(2-methylpyrrolidin-1-yl)ethan-1-one], the IC50 was 10.9 nM at human TLR8 (setting [1]), 370 nM at human TLR9 (setting [2]) and 3.2 nM on human TLR7 (setting [3]).
As for `Cc1cc(-c2[nH]c3ccc(C4CCN(C5CCOCC5)CC4)cc3c2C(C)C)cc(C)n1` [Example 450, 2-(2,6-dimethylpyridin-4-yl)-3-isopropyl-5-(1-(tetrahydro-2H-pyran-4-yl)piperidin-4-yl)-1H-indole], the IC50 at human TLR8 (setting [1]) was found to be 7.9 nM; at human TLR9 (setting [2]) it was 572 nM; against human TLR7 (setting [3]) it was 7.8 nM.
The matching figures for `Cc1cc(-c2[nH]c3ccc(C4CCN(C(=O)C5(C)CC5)CC4)cc3c2C(C)C)ccn1` [Example 610, (4-(3-isopropyl-2-(2-methylpyridin-4-yl)-1H-indol-5-yl)piperidin-1-yl)(1-methylcyclopropyl)methanone]: 163 nM, 47300 nM and 48.6 nM.
The matching figures for `Cc1cc(-c2[nH]c3ccc(C4CCN(C(C)C)CC4)cc3c2C(C)C)c(C)cn1` [Example 641, 2-(2,5-dimethylpyridin-4-yl)-3-isopropyl-5-(1-isopropylpiperidin-4-yl)-1H-indole]: 9.7 nM, 2670 nM and 33 nM.
As to `Cc1cc(-c2[nH]c3ccc(C4CCN(Cc5cncnc5)CC4)cc3c2C(C)C)cc(C)n1` [Example 434, 2-(2,6-dimethylpyridin-4-yl)-3-isopropyl-5-(1-(pyrimidin-5-ylmethyl)piperidin-4-yl)-1H-indole], the IC50 at human TLR8 (setting [4]) amounted to 10.5 nM; on human TLR9 (setting [5]), 755 nM; against human TLR7 (setting [3]), 35.3 nM.
On to `CCC(CC)C(=O)N1CCC(c2ccc3[nH]c(-c4cc(C)nc(C)c4)c(C(C)C)c3c2)CC1` [Example 104, 1-(4-(2-(2,6-dimethylpyridin-4-yl)-3-isopropyl-1H-indol-5-yl)piperidin-1-yl)-2-ethylbutan-1-one], for which the IC50 turned out to be 249 nM on human TLR8 (setting [1]), 12000 nM at human TLR9 (setting [2]) and 14.9 nM against human TLR7 (setting [3]).
The matching figures for `Cc1cc(-c2[nH]c3ccc(C4CCN(C(=O)CN5C[C@@H](O)CC5=O)CC4)cc3c2C(C)C)cc(C)n1` [Example 169, (S)-1-(2-(4-(2-(2,6-dimethylpyridin-4-yl)-3-isopropyl-1H-indol-5-yl)piperidin-1-yl)-2-oxoethyl)-4-hydroxypyrrolidin-2-one]: 73.7 nM, greater than 50000 nM and 11.7 nM.
`Cc1cc(-c2[nH]c3ccc(C4CCN(C(=O)C5CC(=O)N(C)C5)CC4)cc3c2C(C)C)cc(C)n1` (stereo not drawn) [Example 102, 4-(4-(2-(2,6-dimethylpyridin-4-yl)-3-isopropyl-1H-indol-5-yl)piperidine-1-carbonyl)-1-methylpyrrolidin-2-one]: the figures for the IC50 against human TLR8 (setting [4]), against human TLR9 (setting [5]) and on human TLR7 (setting [3]) were 72.6 nM, 36200 nM and 7.5 nM, respectively.
As for `Cc1cc(-c2[nH]c3ccc(C4CCN(C(CF)CF)CC4)cc3c2C(C)C)cc(C)n1` [Example 473, 5-(1-(1,3-difluoropropan-2-yl)piperidin-4-yl)-2-(2,6-dimethylpyridin-4-yl)-3-isopropyl-1H-indole], the IC50 on human TLR8 (setting [1]) is 21.1 nM; on human TLR9 (setting [2]) it was 835 nM; against human TLR7 (setting [3]), 10.1 nM.
Regarding `Cc1nccc(-c2[nH]c3ccc(C4CCN(C(=O)CN(C)C)CC4)cc3c2C(C)C)c1F` [Example 587, 2-(dimethylamino)-1-(4-(2-(3-fluoro-2-methylpyridin-4-yl)-3-isopropyl-1H-indol-5-yl)piperidin-1-yl)ethan-1-one], the values for the IC50 at human TLR8 (setting [1]), on human TLR9 (setting [2]) and on human TLR7 (setting [3]) were 5.2 nM, 2910 nM and 2.7 nM, respectively.
